Experimental data reported in US10744128B2, “6-(5-membered heteroaryl)isoquinolin-3-yl-(5-membered heteroaryl) carboxamides and preparation and use thereof” (Samumed, LLC, priority 2017, dated 2020).
Where two headings read alike, the source gives them in different places.

Legend:
[1] = system: Wnt-responsive promoter (Sp5-Luc reporter) in SW480 colon carcinoma cells; test: Sp5-Luc reporter gene screening assay for Wnt activity in SW480 cells; format: cell-based, human; details: 36 to 48 hours, luminescence
Outline: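 SW480 cells stably carrying a luciferase reporter under an Sp5 promoter with eight TCF/LEF sites, plated at 4,000 cells/well in DMEM with 1% FBS and incubated 36 to 48 hours at 37° C. Luminescence normalized to DMSO-only cells; EC50 fitted by four-parameter nonlinear regression.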

recombinant GSK3β kinase = recombinant GSK3β kinase (Homo sapiens (Human), UniProt P49841); test: GSK3β kinase assay (Ser/Thr 09 peptide Z-lyte, FRET); format: biochemical; details: GSK3β kinase, 46 μM ATP, one hour; method calls values IC50
Sequence of recombinant GSK3β kinase (P49841 whole entry): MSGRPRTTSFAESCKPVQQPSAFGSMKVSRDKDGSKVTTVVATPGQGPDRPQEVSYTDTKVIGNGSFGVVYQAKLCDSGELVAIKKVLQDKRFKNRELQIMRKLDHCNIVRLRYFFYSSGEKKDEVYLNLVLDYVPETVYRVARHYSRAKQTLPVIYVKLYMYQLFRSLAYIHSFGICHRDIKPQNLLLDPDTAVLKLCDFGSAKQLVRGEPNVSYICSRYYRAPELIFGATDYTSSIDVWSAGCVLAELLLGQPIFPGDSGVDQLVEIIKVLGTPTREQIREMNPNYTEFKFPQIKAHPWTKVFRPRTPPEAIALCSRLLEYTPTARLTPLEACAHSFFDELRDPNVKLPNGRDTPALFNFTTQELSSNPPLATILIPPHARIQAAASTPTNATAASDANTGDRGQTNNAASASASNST

[2] = system: SW480 colon carcinoma cells; test: Cell viability assay (CellTiter-Glo) in SW480 cells; format: cell-based, human; details: four days
[3] = system: primary human fibroblasts derived from IPF patients (LL29 cells), α-smooth muscle actin; test: Inhibition of fibrotic process: αSMA in TGF-β1 treated LL29 fibroblasts; format: cell-based; details: for EC50: LL29 cells, TGF-β1 20 ng/mL, 4 days, % cells positive for αSMA; for inhibition at 10 µM: read-out: percent inhibition at 10 μM
Outline: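 LL29 fibroblasts from IPF patients, in F12 medium with 1% FBS, treated with TGF-β1 plus compound; TGF-β1 with DMSO as positive control, DMSO alone as negative control. After 4 days' incubation, SYTOX green nucleic acid stain added at 1 μM final, 30 min at room temperature.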

IL-6 = IL-6 inhibition in LPS-stimulated human peripheral blood mononuclear cells (HTRF); format: cell-based; details: for EC50: huPBMCs, LPS 50 ng/mL, 22 hours, IL-6 HTRF; for inhibition at 10 µM: read-out: percent inhibition at 10 μM
Outline: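 Fresh human PBMCs at 1×10e6 cells/mL in 1% FBS-RPMI were pretreated with compound for 2 h, then stimulated with 50 ng/mL E. coli 0111:B4 LPS for a further 22 h at 37 °C. IL-6 was measured by HTRF (665/620 nm ratio). Values were normalized to DMSO and fitted 4-parameter for EC50.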

[4] = biological target: recombinant DYRK1A kinase (Homo sapiens (Human), UniProt Q13627); test: DYRK1A kinase assay (Ser/Thr 18 peptide Z-lyte, FRET); details: DYRK1A kinase, 30 μM ATP, one hour; method calls values IC50
[5] = system: Tau phosphorylation at Ser396 (pSer396); test: Tau phosphorylation (pSer396) assay in SH-SY5Y cells; format: cell-based, human
Description: Two days before treatment, cells were seeded onto 96 well plates at 5×10^4 cells/well.
The above synthesized compounds were screened using the cell assay procedure to assess decrease Tau phosphorylation at Ser396 (pSer396) described below.
Cells were lysed with RIPA buffer complemented with phosphatase and protease inhibitors then lysates were spun down at 12,000 g for 10 min to remove any cellular debris.

Compound	EC50 ([1]; Homo sapiens) [µM]	EC50 (recombinant GSK3β kinase) [µM]	EC50 ([2]; Homo sapiens, 96 h) [µM]	EC50 (IL-6; Homo sapiens, PBMC) [µM]	EC50 [4] [µM]	EC50 ([5]; SH-SY5Y cells, overnight (16-18 h), pSer396 Tau ELISA, read-out: EC50) [µM]	EC50 [1] [µM]	EC50 [2] [µM]	EC50 (IL-6) [µM]	EC50 ([3]; Homo sapiens, Fibroblast, 96 h) [µM]	inhibition at 10 µM ([3]; Homo sapiens, Fibroblast) [%]	inhibition at 10 µM (IL-6; Homo sapiens, PBMC) [%]	EC50 ([5]; Homo sapiens, SH-SY5Y) [µM]	EC50 [3] [µM]
Cn1cnc(C(=O)Nc2cc3cc(-c4cncn4C)ccc3cn2)n1 [Compound 52, 1-Methyl-N-(6-(1-methyl-1H-imidazol-5-yl)isoquinolin-3-yl)-1H-1,2,4-triazole-3-carboxamide]	2.18	5.03	3.61	> 10	0.009					> 10	33.8	1.1		
CC(C)c1nc(C(=O)Nc2cc3cc(-c4cncn4C)ccc3cn2)co1 [Compound 54, 2-Isopropyl-N-(6-(1-methyl-1H-imidazol-5-yl)isoquinolin-3-yl)oxazole-4-carboxamide]	2.13	1.92	3.73	6.51	0.018					3.21				
Cc1csc(C(=O)Nc2cc3cc(-c4cncn4C)ccc3cn2)n1 [Compound 56, 4-Methyl-N-(6-(1-methyl-1H-imidazol-5-yl)isoquinolin-3-yl)thiazole-2-carboxamide]	2.31	9.99	3.07	8.92	0.005					3.19				
Cc1nc(C(=O)Nc2cc3cc(-c4cncn4C)ccc3cn2)cs1 [Compound 57, 2-Methyl-N-(6-(1-methyl-1H-imidazol-5-yl)isoquinolin-3-yl)thiazole-4-carboxamide]	2.55	1.61	1.81	> 10	0.006					2.83		19.6		
Cc1nnc(C(=O)Nc2cc3cc(-c4cncn4C)ccc3cn2)o1 [Compound 58, 5-Methyl-N-(6-(1-methyl-1H-imidazol-5-yl)isoquinolin-3-yl)-1,3,4-oxadiazole-2-carboxamide]	1.31	4.34	2.96	> 10	0.009					1.28		9.5		
Cc1ncc(-c2ccc3cnc(NC(=O)c4cnn(C)c4)cc3c2)n1C [Compound 60, N-(6-(1,2-Dimethyl-1H-imidazol-5-yl)isoquinolin-3-yl)-1-methyl-1H-pyrazole-4-carboxamide]	0.121	4.01	0.405	1.58	0.004					0.77				
Cc1ncc(-c2ccc3cnc(NC(=O)c4cnn(C(C)C)c4)cc3c2)n1C [Compound 61, N-(6-(1,2-Dimethyl-1H-imidazol-5-yl)isoquinolin-3-yl)-1-isopropyl-1H-pyrazole-4-carboxamide]	0.063	6.79	0.111	0.566	0.005					0.318				
Cc1nnc(-c2ccc3cnc(NC(=O)c4cn(C5CCN(C)CC5)nn4)cc3c2)s1 [Compound 67, N-(6-(5-Methyl-1,3,4-thiadiazol-2-yl)isoquinolin-3-yl)-1-(1-methylpiperidin-4-yl)-1H-1,2,3-triazole-4-carboxamide]	0.463	2.34	0.899	> 10	0.031					4.36		8.3		
Cc1nnc(-c2ccc3cnc(NC(=O)c4coc(C5CCN(C)CC5)n4)cc3c2)s1 [Compound 69, N-(6-(5-Methyl-1,3,4-thiadiazol-2-yl)isoquinolin-3-yl)-2-(1-methylpiperidin-4-yl)oxazole-4-carboxamide]	2.15	6.77	1.29	> 10	0.527					> 10	43.9	2.3		
CC(C)n1cc(C(=O)Nc2cc3cc(-c4cncn4C(C)C)ccc3cn2)cn1 [Compound 70, 1-Isopropyl-N-(6-(1-isopropyl-1H-imidazol-5-yl)isoquinolin-3-yl)-1H-pyrazole-4-carboxamide]	0.115	7.08	0.132	1.6	0.009					0.249				
COc1ccc2c(c1)[nH]c1c(C)nccc12 [Harmine, reference compound]													> 10	
CCN1/C(=C/C(C)=O)Sc2ccc(O)cc21 [Indy, reference compound]						> 10								
N-(6-(1-(Methyl-d3)-1H-pyrazol-4-yl)isoquinolin-3-yl)-2-(1-methylpiperidin-4-yl)oxazole-4-carboxamide [Compound 17]		2.93			0.016		0.111	0.128	6.2					0.173
N-(6-(1-Methyl-1H-pyrazol-4-yl)isoquinolin-3-yl)-2-(4-methylpiperazin-1-yl)oxazole-5-carboxamide [Compound 15]		9.52			0.008		0.103	0.146	0.754					0.279

Continued by falling EC50 (recombinant GSK3β kinase), values first:

EC50 ([1]; Homo sapiens) [µM]	EC50 (recombinant GSK3β kinase) [µM]	EC50 ([2]; Homo sapiens, 96 h) [µM]	EC50 (IL-6; Homo sapiens, PBMC) [µM]	EC50 [4] [µM]	EC50 ([5]; SH-SY5Y cells, overnight (16-18 h), pSer396 Tau ELISA, read-out: EC50) [µM]	EC50 [1] [µM]	EC50 [2] [µM]	EC50 (IL-6) [µM]	Compound	EC50 ([3]; Homo sapiens, Fibroblast, 96 h) [µM]	inhibition at 10 µM ([3]; Homo sapiens, Fibroblast) [%]	inhibition at 10 µM (IL-6; Homo sapiens, PBMC) [%]	EC50 ([5]; Homo sapiens, SH-SY5Y) [µM]	EC50 [3] [µM]
1.89	1.42	3.32	> 10	0.004					Cc1nnc(C(=O)Nc2cc3cc(-c4cncn4C)ccc3cn2)s1 [Compound 59, 5-Methyl-N-(6-(1-methyl-1H-imidazol-5-yl)isoquinolin-3-yl)-1,3,4-thiadiazole-2-carboxamide]	1.42		0		
1.12	0.986	3.07	9.47	0.007					Cc1coc(C(=O)Nc2cc3cc(-c4cncn4C)ccc3cn2)n1 [Compound 55, 4-Methyl-N-(6-(1-methyl-1H-imidazol-5-yl)isoquinolin-3-yl)oxazole-2-carboxamide]	3.81				
1.89	0.821	3.2	> 10	0.014					Cc1nc(C(=O)Nc2cc3cc(-c4cncn4C)ccc3cn2)co1 [Compound 53, 2-Methyl-N-(6-(1-methyl-1H-imidazol-5-yl)isoquinolin-3-yl)oxazole-4-carboxamide]	2.42		47.5		
0.122	0.666	0.414	2.64	0.074					Cc1nnc(-c2ccc3cnc(NC(=O)c4coc(C5CCNCC5)n4)cc3c2)s1 [Compound 68, N-(6-(5-Methyl-1,3,4-thiadiazol-2-yl)isoquinolin-3-yl)-2-(piperidin-4-yl) oxazole-4-carboxamide]	2.58				
0.466	0.641	0.844	> 10	0.004					Cc1ncc(C(=O)Nc2cc3cc(-c4cncn4C)ccc3cn2)n1C [Compound 51, 1,2-Dimethyl-N-(6-(1-methyl-1H-imidazol-5-yl)isoquinolin-3-yl)-1H-imidazole-5-carboxamide]	> 10	6.5	10.9		
0.03	0.628	0.048	0.361	0.006					Cc1nnc(-c2ccc3cnc(NC(=O)c4cnn(C5CCN(C)CC5)c4)cc3c2)s1 [Compound 65, N-(6-(5-Methyl-1,3,4-thiadiazol-2-yl)isoquinolin-3-yl)-1-(1-methylpiperidin-4-yl)-1H-pyrazole-4-carboxamide]	0.219				
0.034	0.611	0.058	0.298	0.002					Cc1ncc(-c2ccc3cnc(NC(=O)c4cnn(C5CCN(C)CC5)c4)cc3c2)o1 [Compound 63, N-(6-(2-Methyloxazol-5-yl)isoquinolin-3-yl)-1-(1-methylpiperidin-4-yl)-1H-pyrazole-4-carboxamide]	0.113				
0.034	0.39	0.046	0.893	0.004					Cc1nnc(-c2ccc3cnc(NC(=O)c4cnn(C5CCN(C(C)C)CC5)c4)cc3c2)s1 [Compound 66, 1-(1-Isopropylpiperidin-4-yl)-N-(6-(5-methyl-1,3,4-thiadiazol-2-yl)isoquinolin-3-yl)-1H-pyrazole-4-carboxamide]	0.169				
